Source: patent US20100203575A1, “In Vitro Beating Heart Model” (INSERM (Institut National de la Sante et de la Recherche …, priority 2007, published 2010)
Like-named read-outs stand apart in the source and are kept apart here.

How the values were obtained:
heart slice cultures [1] = settings: 10, 100 nmol/L and 1 μmol/L, 30 days after plating, 37° C., monitored 3 min after stimulation
Method: (§1) Cultures were prepared from ventricular sections of 3 day-old rats (Charles River, France) or 8 weeks-old human embyros. The hearts were removed and placed in Phosphate-Buffered Saline (PBS), atria were removed and the ventricles sliced at 1 mm-thickness using a rodent heart matrix (Harvard Apparatus). The heart slices were immediately transferred to a Millicell-CM 0.4 μm membrane (Millipore, France) and the insert placed into a 6 well-plate containing 1 ml of medium.
(§2) The culture medium consisted of DMEM/F12 medium supplemented with 20% Knockout Serum Replacement, 1% non essential amino acids, 2 mM L-glutamine, 0.1 mM β-mercaptoethanol, and 1% PS (Invitrogen, France). Heart slices were maintained for 30-80 days at 37° C. in a humidified atmosphere containing 5% CO2.
(§3) Further functional characterization of the contractile function of ventricular slices was carried out on 24 slices, at 30 days after plating, using a stereomicroscope and a temperature-controlled stage set at 37° C., following incubation with 10, 100nM and 1 μM of epinephrine (Sigma, France). Beating frequency was monitored 3 min after pharmacological stimulation.

human heart slices = settings: slices from 8 week-old human embryo
Method: as §1, §2, §3

heart slice cultures [2] = tested on: heart slice cultures
Method: Additional analysis was performed on 3 slices, at 30 days after plating using a confocal laser scanning microscope (Zeiss), following incubation with 5 μM fluo-4 AM (Invitrogen, France) for 20 min at 37° C.
To monitor spontaneous Ca2+ spiking, heart slice cultures, were loaded with 5 μmol/L Fluo-4 AM ester and the temporal change of fluorescent intensity was measured at physiological temperature (37° C.).

SMILES: CNC[C@H](O)c1ccc(O)c(O)c1 [epinephrine]
- spontaneous beating frequencies of heart slice (heart slice cultures [1]): increased the spontaneous beating frequencies of heart slice in dose-response manner
- spontaneous beating frequencies of heart slice (heart slice cultures [1]; listed as Epinepfrine): increased the frequencies of spontaneous beating in dose-response manner
- spontaneous beating frequency of human heart slices (human heart slices): increased spontaneous beating frequency of both human heart slices, in a dose-dependent manner
- spontaneous beating frequency of human heart slices (human heart slices; listed as Epinephrine): increases the frequencies of beating in human heart slices
- Ca2+-transient amplitude and frequency (heart slice cultures [2]; heart slice loaded with fluo-4, confocal analysis): dose-dependent increase in Ca2+-transient amplitude and frequency
- concentration giving maximal response (heart slice cultures [2]; tested 10, 100 nmol/L and 1 μmol/L): 1 µmol/L
